According to US11718604B2, “4-amino-6-(1,3-benzodioxole)picolinates and their use as herbicides” (Dow AgroSciences LLC, priority 2018, dated 2023):

Columns and labels:
Type in all cases: in vivo
[1] = tested on: VIOTR: wild violet (Viola tricolor); test: Post-emergent herbicidal test, wild violet; conditions: post-emergence, 336 h, 14 days after application, read-out: Visual Growth Reduction (%) 14 Days After Application VIOTR; for pest or weed control at 17.5 g/ha: 17.5 g ai/ha; for pest or weed control at 35 g/ha: 35 g ai/ha; for pest or weed control at 70 g/ha: 70 g ai/ha; for pest or weed control at 140 g/ha: 140 g ai/ha
Outline: (§1)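 Post-emergence foliar spray, 187 L/ha, 1st–2nd true leaf plants; vehicle acetone/DMSO/IPA/water + Atplus 411F + Triton X-155; solvent-blank controls; subirrigated; 14 d greenhouse, visual % injury.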

[2] = tested on: EPHHL: wild poinsettia (Euphorbia heterophylla); test: Post-emergent herbicidal test, wild poinsettia; conditions: post-emergence, 336 h, 14 days after application, read-out: Visual Growth Reduction (%) 14 Days After Application EPHHL; for pest or weed control at 17.5 g/ha: 17.5 g ai/ha; for pest or weed control at 35 g/ha: 35 g ai/ha; for pest or weed control at 70 g/ha: 70 g ai/ha; for pest or weed control at 140 g/ha: 140 g ai/ha
Outline: as §1

[3] = tested on: DIGSA: large crabgrass (Digitaria sanguinalis); test: Post-emergent herbicidal test, large crabgrass; conditions: post-emergence, 336 h, 14 days after application, read-out: Visual Growth Reduction (%) 14 Days After Application DIGSA; for pest or weed control at 17.5 g/ha: 17.5 g ai/ha; for pest or weed control at 35 g/ha: 35 g ai/ha; for pest or weed control at 70 g/ha: 70 g ai/ha; for pest or weed control at 140 g/ha: 140 g ai/ha
Outline: as §1

[4] = tested on: CYPES: yellow nutsedge (Cyperus esculentus); test: Post-emergent herbicidal test, yellow nutsedge; conditions: post-emergence, 336 h, 14 days after application, read-out: Visual Growth Reduction (%) 14 Days After Application CYPES; for pest or weed control at 17.5 g/ha: 17.5 g ai/ha; for pest or weed control at 35 g/ha: 35 g ai/ha; for pest or weed control at 70 g/ha: 70 g ai/ha; for pest or weed control at 140 g/ha: 140 g ai/ha
Outline: as §1

[5] = tested on: ABUTH: velvetleaf (Abutilon theophrasti); test: Post-emergent herbicidal test, velvetleaf; conditions: post-emergence, 336 h, 14 days after application, read-out: Visual Growth Reduction (%) 14 Days After Application ABUTH; for pest or weed control at 17.5 g/ha: 17.5 g ai/ha; for pest or weed control at 35 g/ha: 35 g ai/ha; for pest or weed control at 70 g/ha: 70 g ai/ha; for pest or weed control at 140 g/ha: 140 g ai/ha
Outline: as §1

[6] = tested on: IPOHE: ivyleaf morningglory (Ipomoea hederacea); test: Post-emergent herbicidal test, ivyleaf morningglory; conditions: post-emergence, 336 h, 14 days after application, read-out: Visual Growth Reduction (%) 14 Days After Application IPOHE; for pest or weed control at 17.5 g/ha: 17.5 g ai/ha; for pest or weed control at 35 g/ha: 35 g ai/ha; for pest or weed control at 70 g/ha: 70 g ai/ha; for pest or weed control at 140 g/ha: 140 g ai/ha
Outline: as §1

[7] = tested on: SORVU: shattercane (Sorghum bicolor); test: Post-emergent herbicidal test, shattercane; conditions: post-emergence, 336 h, 14 days after application, read-out: Visual Growth Reduction (%) 14 Days After Application SORVU; for pest or weed control at 17.5 g/ha: 17.5 g ai/ha; for pest or weed control at 35 g/ha: 35 g ai/ha; for pest or weed control at 70 g/ha: 70 g ai/ha; for pest or weed control at 140 g/ha: 140 g ai/ha
Outline: as §1

[8] = tested on: BRSNN: oilseed rape, canola (Brassica napus); test: Post-emergent herbicidal test, oilseed rape; conditions: post-emergence, 336 h, 14 days after application, read-out: Visual Growth Reduction (%) 14 Days After Application BRSNN; for pest or weed control at 17.5 g/ha: 17.5 g ai/ha; for pest or weed control at 35 g/ha: 35 g ai/ha; for pest or weed control at 70 g/ha: 70 g ai/ha; for pest or weed control at 140 g/ha: 140 g ai/ha
Outline: as §1

[9] = tested on: SETFA: giant foxtail (Setaria faberi); test: Post-emergent herbicidal test, giant foxtail; conditions: post-emergence, 336 h, 14 days after application, read-out: Visual Growth Reduction (%) 14 Days After Application SETFA; for pest or weed control at 17.5 g/ha: 17.5 g ai/ha; for pest or weed control at 35 g/ha: 35 g ai/ha; for pest or weed control at 70 g/ha: 70 g ai/ha; for pest or weed control at 140 g/ha: 140 g ai/ha
Outline: as §1

[10] = tested on: CIRAR: Canada thistle (Cirsium arvense); test: Post-emergent herbicidal test, Canada thistle; conditions: post-emergence, 336 h, 14 days after application, read-out: Visual Growth Reduction (%) 14 Days After Application CIRAR; for pest or weed control at 17.5 g/ha: 17.5 g ai/ha; for pest or weed control at 35 g/ha: 35 g ai/ha; for pest or weed control at 70 g/ha: 70 g ai/ha; for pest or weed control at 140 g/ha: 140 g ai/ha
Outline: as §1

[11] = tested on: ECHCG: barnyardgrass (Echinochloa crus-galli); test: Post-emergent herbicidal test, barnyardgrass; conditions: post-emergence, 336 h, 14 days after application, read-out: Visual Growth Reduction (%) 14 Days After Application ECHCG; for pest or weed control at 17.5 g/ha: 17.5 g ai/ha; for pest or weed control at 35 g/ha: 35 g ai/ha; for pest or weed control at 70 g/ha: 70 g ai/ha; for pest or weed control at 140 g/ha: 140 g ai/ha
Outline: as §1

Nc1c(F)c(-c2cccc3c2OCO3)nc(C(=O)O)c1Cl [Compound 3]
15%: pest or weed control at 35 g/ha [1]
70%: pest or weed control at 17.5 g/ha [10]
35%: pest or weed control at 140 g/ha [1]
98%: pest or weed control at 140 g/ha [8]
30%: pest or weed control at 70 g/ha [1]
95%: pest or weed control at 70 g/ha [5] | pest or weed control at 140 g/ha [5] | pest or weed control at 70 g/ha [8] | pest or weed control at 70 g/ha [10] | pest or weed control at 140 g/ha [10]
0%: pest or weed control at 17.5 g/ha [1] | pest or weed control at 17.5 g/ha [2] | pest or weed control at 35 g/ha [2] | pest or weed control at 70 g/ha [2] | pest or weed control at 140 g/ha [2] | pest or weed control at 17.5 g/ha [3] | pest or weed control at 35 g/ha [3] | pest or weed control at 70 g/ha [3] | pest or weed control at 140 g/ha [3] | pest or weed control at 17.5 g/ha [4] | pest or weed control at 35 g/ha [4] | pest or weed control at 70 g/ha [4] | pest or weed control at 140 g/ha [4] | pest or weed control at 17.5 g/ha [6] | pest or weed control at 35 g/ha [6] | pest or weed control at 70 g/ha [6] | pest or weed control at 140 g/ha [6] | pest or weed control at 17.5 g/ha [7] | pest or weed control at 35 g/ha [7] | pest or weed control at 70 g/ha [7] | pest or weed control at 140 g/ha [7] | pest or weed control at 17.5 g/ha [9] | pest or weed control at 35 g/ha [9] | pest or weed control at 70 g/ha [9] | pest or weed control at 140 g/ha [9] | pest or weed control at 17.5 g/ha [11] | pest or weed control at 35 g/ha [11] | pest or weed control at 70 g/ha [11] | pest or weed control at 140 g/ha [11]
60%: pest or weed control at 17.5 g/ha [5] | pest or weed control at 17.5 g/ha [8]
80%: pest or weed control at 35 g/ha [5] | pest or weed control at 35 g/ha [8]
85%: pest or weed control at 35 g/ha [10]

COC(=O)c1nc(-c2cccc3c2OC(F)(F)O3)c(F)c(N)c1Cl [Compound 4]
30%: pest or weed control at 140 g/ha [6]
70%: pest or weed control at 17.5 g/ha [5]
80%: pest or weed control at 35 g/ha [5] | pest or weed control at 70 g/ha [5] | pest or weed control at 17.5 g/ha [10]
50%: pest or weed control at 70 g/ha [4] | pest or weed control at 140 g/ha [4]
90%: pest or weed control at 35 g/ha [8] | pest or weed control at 35 g/ha [10] | pest or weed control at 140 g/ha [10]
20%: pest or weed control at 70 g/ha [1] | pest or weed control at 35 g/ha [4]
95%: pest or weed control at 70 g/ha [8] | pest or weed control at 140 g/ha [8] | pest or weed control at 70 g/ha [10]
0%: pest or weed control at 17.5 g/ha [1] | pest or weed control at 35 g/ha [1] | pest or weed control at 17.5 g/ha [2] | pest or weed control at 35 g/ha [2] | pest or weed control at 70 g/ha [2] | pest or weed control at 140 g/ha [2] | pest or weed control at 17.5 g/ha [3] | pest or weed control at 35 g/ha [3] | pest or weed control at 70 g/ha [3] | pest or weed control at 140 g/ha [3] | pest or weed control at 17.5 g/ha [4] | pest or weed control at 17.5 g/ha [6] | pest or weed control at 17.5 g/ha [7] | pest or weed control at 35 g/ha [7] | pest or weed control at 70 g/ha [7] | pest or weed control at 140 g/ha [7] | pest or weed control at 17.5 g/ha [9] | pest or weed control at 35 g/ha [9] | pest or weed control at 70 g/ha [9] | pest or weed control at 140 g/ha [9] | pest or weed control at 17.5 g/ha [11] | pest or weed control at 35 g/ha [11] | pest or weed control at 70 g/ha [11] | pest or weed control at 140 g/ha [11]
10%: pest or weed control at 35 g/ha [6] | pest or weed control at 70 g/ha [6]
85%: pest or weed control at 140 g/ha [5] | pest or weed control at 17.5 g/ha [8]
35%: pest or weed control at 140 g/ha [1]
